Assay results published in patent US20230372263A1, “METHODS AND COMPOSITIONS FOR TREATING AMYOTROPHIC LATERAL SCLEROSIS” (Amylyx Pharmaceuticals, Inc., priority 2022, published 2023).

Tests used:
Plasma protein = Plasma protein binding in vitro; type: in vitro ADME; conditions: co-administered in vitro
[1] = Plasma protein binding in vitro; type: in vitro ADME; conditions: plasma, co-administered in vitro
clinical [2] = type: in vivo, human; conditions: human, in vivo
Protocol: (§1) • Protocol AMX3500: sparse sampling in 87 subjects with ALS. Approximately 2 samples are collected for each subject, 1 or 4 hours post dose following 12 and 24 weeks of treatment. • Protocol A35-002: rich sampling in 14 healthy adults. Approximately 21 samples are collected over 24 hours for each subject on two occasions, once following a high fat meal and the other under fasting conditions.
A total of 14 healthy subjects were enrolled in order to have no fewer than 12 subjects complete. A predefined mix of gender was selected.
Each study period followed the same study design (FIG. 1). Subjects were screened for inclusion in the study up to 28 days before dosing. Subjects were admitted to the clinical unit during Study Day −2 for Period 1 and Day −1 for Period 2 and were dosed in the morning of Day 1. On the night prior to Period 1 the subjects in the fasted/fed or fed/fasted sequence were fasted for a minimum of 10 h prior to dosing.
The solution was stirred until the powder was mostly dissolved.
Any departures from the intended regimen were recorded in the eCRFs. All dose administrations were performed in the study center under the supervision of appropriately trained staff.
Subjects were provided with a light snack and were then fasted from all food and drink (except water) until the following morning, when they were provided with a high-fat breakfast. The breakfast was consumed over a maximum period of 25 min, and dosing occurred 30 min after the start of breakfast. Subjects were encouraged to eat their meal evenly over the 25 min period. For this trial the subject was deemed compliant if they consumed >80% of the high-fat standard breakfast.
The subjects in the 24-h baseline and in the fasted condition Period remained fasted up to 4 h post-dose and were offered a standardized meal to be taken between 4.00 and 5.00 h post-dose. Subjects in the fed condition were fasted overnight and received a high-fat standard breakfast 30 minutes pre-dose and then remained fasted for 4.00 to 5.00 h post-dose when they received a standardized meal.
Venous blood samples were withdrawn via an indwelling cannula or by venipuncture according to the time schedule presented in Table 5 Table, Table 6, and Table 7.
Blood samples of approximately 4 mL were collected into 4 mL BD Vacutainer Plastic K2EDTA Tubes with Lavender Hemogard Closure, and was gently inverted approximately 8 times. The tubes were then immediately stored on ice and processed within 60 min of collection by centrifugation at 1500 g for 10 min at 2 to 8° C. The resultant plasma was separated equally into 2 aliquots and transferred to 2 mL appropriately labelled primary and backup polypropylene cryovials.
Actual elapsed time from dosing was to be used for the final plasma PK parameter calculations after database lock.

clinical [3] = type: in vivo, human; conditions: human, in vivo; for concentration at 1 h / concentration at 4 h: both sexes
Protocol: • 1. […] Treatment is administered as one sachet daily for the initial 3 weeks and then increased if tolerated to one sachet twice daily. […] Sampling times are randomly assigned to occur at either 1 or 4 hours post-dose at the 12 week visit and the other time at the 24 week visit. • Treatment duration: 24 weeks • 2.
as §1
Subjects were advised to take the drug before a meal. […] Referred to as protocol 3500.
A study was carried out to examine plasma concentration data in various subgroups for the protocol AMX3500 Phase 2 study. This example summarizes plasma concentrations of TUDCA and 2 metabolites, also related acids, UDCA, the de-conjugated TUDCA metabolite, and GUDCA, the glycine conjugate of UDCA.
For each of the 2 treatment arms (treatment and placebo), subjects were further divided into 2 sample sequence groups for schedule of pharmacokinetic measurements: • 1. 1 hour post-dose for the Week 12 visit and 4 hours post-dose for the Week 24 visit • 2. 4 hours post-dose for the Week 12 visit and 1 hour post-dose for the Week 24 visit
Twenty-four distinct medication descriptions were identified as containing antibiotics. Dates of antibiotic use were compared to dates of visits and if the antibiotic use date range contained the visit date, then that visit was flagged for that subject's data for antibiotic use. […] These antibiotics could hypothetically be in a subject's body still if this event occurred. However, it was observed that only a small number of subjects took antibiotics near to visit dates but not overlapping visit dates. In other cases, subjects were taking antibiotics on the date of one visit but not the others. Some subjects are therefore in both categories of antibiotic use and nonuse, though no individual visits for a subject are counted in both categories at the same time.
Subjects whose race were recorded as “Black” or “African American” were evaluated according to the standard Glomerular Filtration Rate (eGFR) rating for that race. The other standard eGFR rating used, sometimes referred to as a standard for people who are White, was applied to subjects of all other races. These rates were analyzed as continuous in mL/min/1.73 m2 units and as the following categories: • 1. Less than 90 mL/min/1.73 m^2 • 2. Equal to or greater than 90 mL/min/1.73 m^2
Age was converted from a continuous variable to 2 categories: • 1. As old or older than 65 years old • 2. Younger than 65 years old
All boxplots boxes are bounded at the 25th and 75th percentile, with whiskers at 10th and 90th percentiles, outliers beyond that as points, the black line as median, and red line as mean.

human hepatocytes = test: Metabolites in hepatocytes in vitro; type: in vitro ADME
[4] = within 24 hours; cited from earlier work
[5] = Population pharmacokinetic model and simulations of PB and PAA (healthy subjects and ALS patients); set-up: species or system human; conditions: for Cmax, Mean: from individual Bayesian (post hoc) parameter estimates; for Cmax, 2.5th percentile / Cmax, 97.5th percentile / Cmax, Geometric mean / Cmax, Median: post hoc Bayesian estimates; for CL/F, apparent (oral) metabolic clearance of phenylbutyrate to phenylacetate / Ka, PB oral absorption rate constant under fasting conditions / Ka, oral absorption rate constant when phenylbutyrate is administered with food / V/F, apparent volume of distribution of phenylbutyrate: population PK
From the text: The order of administration with and without food was randomly assigned. […] Subjects were advised to take the drug before a meal. […] No inter-occasion variability (IOV) was included.

[6] = both sexes, elimination half-lives (range)
[7] = Steady-state plasma concentration

C[C@H](CCC(=O)NCCS(=O)(=O)O)[C@H]1CC[C@H]2[C@@H]3[C@@H](O)C[C@@H]4C[C@H](O)CC[C@]4(C)[C@H]3CC[C@]12C [TURSO, taurursodiol]
Plasma protein binding (Plasma protein): ~99% | fraction unbound [1]: 0.02 | AUC(0-inf) (clinical [2]; both sexes, AUC(0-inf)): 3910 ng·h/mL | AUC(0-t) (clinical [2]; both sexes, AUC(0-last)): 4360 ng·h/mL | Cmax (clinical [2]; both sexes, Cmax): 741 ng/mL | half-life (clinical [2]; both sexes, T1/2): 4.34 h | Tmax (clinical [2]; both sexes, Tmax): 4.5 h | Tmax (clinical [2]; both sexes, Tmax Median): 4.5 h | Vd/F (clinical [2]; both sexes, Vz/F): 1600 L | half-life (clinical [2]; [6]): 2.51 to 8.71 h | Cmax (clinical [2]; both sexes, mean Cmax): 871 ng/mL | Cmax (clinical [2]; both sexes, po, Cmax): 741 ng/mL | Tmax (clinical [2]; both sexes, po, Tmax, Median): 4.5 h | AUG(0-last) (clinical [2]; both): 4360 (79.4) ng.h/ml | Tmax (clinical [2]; both): 10.00 h | increase in exposure (AUC) with high-fat, high-calorie meal (clinical [2]; both): 46% | time of maximum plasma concentrations (range) (clinical [2]; both): 1.50 to 10.00 h | AUC(0-last), Adj Geo Mean (clinical [2]; both, po): 4460 ng·h/mL | Cmax, Adj Geo Mean (clinical [2]; both, po): 755 ng/mL | median time to Cmax (clinical [2]): 4.5 h | concentration at 1 h (clinical [3]; Plasma Concentration, Mean): 503 ng/mL | concentration at 4 h (clinical [3]; Plasma Concentration, Mean): 636 ng/mL | concentration at 1 h (clinical [3]; Plasma Concentration, Median): 248 ng/mL | concentration at 4 h (clinical [3]; Plasma Concentration, Median): 446 ng/mL | concentration at 1 h (clinical [3]; [7]): 448 ng/mL | concentration at 4 h (clinical [3]; [7]): 566 ng/mL | Plasma Concentration, Median (clinical [3]; both): 20.0 ng/mL | Plasma Concentration, Min (clinical [3]; both): 20.0 ng/mL | steady state reached by (clinical [3]; both): ≤ 12 Week | Plasma Concentration, Min (clinical [3]; both, 1 h): 20.0 ng/mL | Plasma Concentration, Min (clinical [3]; both, 4 h): 20.0 ng/mL | accumulation in plasma after once- or twice-daily dosing (clinical [3]): little accumulation | effect of age on steady-state plasma concentration (clinical [3]): no difference | effect of mild renal insufficiency on steady-state plasma concentration (clinical [3]): no discernible difference | steady-state plasma concentrations versus endogenous levels (clinical [3]): at least an order of magnitude higher than endogenous levels | metabolites detected in human hepatocytes versus rat and minipig hepatocytes (human hepatocytes): also detected in rat and minipig hepatocytes

O=C(O)CCCc1ccccc1 [PB, sodium phenylbutyrate]
fraction unbound [1]: 0.18 | fraction excreted in the urine as phenylacetylglutamine [4]: 80-100% | half-life (clinical [2]; both sexes, T1/2): 0.46 h | Tmax (clinical [2]; both sexes, Tmax): 0.5 h | Tmax (clinical [2]; both sexes, Tmax Median): 0.5 h | half-life (clinical [2]; [6]): 0.4 to 0.71 h | Cmax (clinical [2]; both sexes, mean Cmax): 188000 ng/mL | Cmax (clinical [2]; both sexes, po, Cmax): 188000 ng/mL | AUC(0-inf) Adj Geo Mean (clinical [2]; both): 261000 ng·h/mL | AUC(0-last), Adj Geo Mean (clinical [2]; both): 241000 ng·h/mL | Cmax, Adj Geo Mean (clinical [2]; both): 191000 ng/mL | Tmax (clinical [2]; both): 0.25 h | concentrations remained quantifiable until (clinical [2]; both): 3.00 to 5.00 h | decrease in AUC with high-fat, high-calorie meal (clinical [2]; both): 55% | time at which plasma concentrations typically peaked (clinical [2]; both): 0.5 to 1 h | time by which eliminated from systemic circulation (clinical [2]; both): ≤ 6 h | time by which plasma concentrations fell below LLOQ (clinical [2]; both): 4 to 5 h | time from which plasma concentrations were evident (clinical [2]; both): 0.25 h | time of maximum plasma concentrations (range) (clinical [2]; both): 0.25 to 0.50 h | median time to Cmax (clinical [2]): 1 h | accumulation in plasma after once- or twice-daily dosing (clinical [3]): no accumulation | effect of age on pharmacokinetics ([5]; ALS patients aged 65-76 versus less than 65 years, model-based analysis): no significant difference | Cmax, Mean ([5]; ALS patients, Fasting): 131000 ng/mL | Cmax, 2.5th percentile ([5]; ALS patients, Fasting): 10300 ng/mL | Cmax, 97.5th percentile ([5]; ALS patients, Fasting): 414000 ng/mL | Cmax, Geometric mean ([5]; ALS patients, Fasting): 90900 ng/mL | Cmax, Median ([5]; ALS patients, Fasting): 97900 ng/mL | Cmax, Mean ([5]; ALS patients, Fed): 48400 ng/mL | Cmax, 2.5th percentile ([5]; ALS patients, Fed): 8740 ng/mL | Cmax, 97.5th percentile ([5]; ALS patients, Fed): 112000 ng/mL | Cmax, Geometric mean ([5]; ALS patients, Fed): 39400 ng/mL | Cmax, Median ([5]; ALS patients, Fed): 43900 ng/mL | estimated steady-state mean Cmax ([5]; ALS patients, based on population PK): 131000 ng/mL | terminal elimination half-life ([5]; based on typical values for CLPB/F and VPB/F): 0.45 h | effect of mild renal insufficiency on pharmacokinetics ([5]; eGFR greater than 60 mL/min, model-based analysis): no significant correlation | decrease in Ka, fed versus fasting ([5]; final model projection): 60% | relationship between exposure and body weight ([5]; population PK analysis): not appreciably affected by body weight | CL/F, apparent (oral) metabolic clearance of phenylbutyrate to phenylacetate ([5]; Bootstrap Median): 14.7 L/h | Ka, PB oral absorption rate constant under fasting conditions ([5]; Bootstrap Median): 1.96 | Ka, oral absorption rate constant when phenylbutyrate is administered with food ([5]; Bootstrap Median): 0.779 | V/F, apparent volume of distribution of phenylbutyrate ([5]; Bootstrap Median): 9.7 L | CL/F, apparent (oral) metabolic clearance of phenylbutyrate to phenylacetate ([5]; Final Model mean estimate): 14.8 L/h | Ka, PB oral absorption rate constant under fasting conditions ([5]; Final Model mean estimate): 1.92 | Ka, oral absorption rate constant when phenylbutyrate is administered with food ([5]; Final Model mean estimate): 0.767 | V/F, apparent volume of distribution of phenylbutyrate ([5]; Final Model mean estimate): 9.6 L
